The text below walks through data of patent US20050020576A1, “Kappa agonist compounds and pharmaceutical formulations thereof” (priority 1996, published 2005).

“And” between values parts separate entries of the source, which are not always exact repeats. Equal entries are not always repeated. Structures can show the parent of a compound that is named as a salt.

What is called Ki is a measure of affinity in units of concentration, obtained from inhibition or displacement. A word on the melting point: it is the temperature, or range, at which the solid turns liquid.

The target in series [1] is T1, cloned human kappa receptor (Homo sapiens, UniProt P41145). Kind of series: [3H]U69593 (agonist) binding to the cloned human kappa receptor. The conditions noted are these: Ki, nM 3H-U-69,593.
T1 sequence (P41145 whole entry): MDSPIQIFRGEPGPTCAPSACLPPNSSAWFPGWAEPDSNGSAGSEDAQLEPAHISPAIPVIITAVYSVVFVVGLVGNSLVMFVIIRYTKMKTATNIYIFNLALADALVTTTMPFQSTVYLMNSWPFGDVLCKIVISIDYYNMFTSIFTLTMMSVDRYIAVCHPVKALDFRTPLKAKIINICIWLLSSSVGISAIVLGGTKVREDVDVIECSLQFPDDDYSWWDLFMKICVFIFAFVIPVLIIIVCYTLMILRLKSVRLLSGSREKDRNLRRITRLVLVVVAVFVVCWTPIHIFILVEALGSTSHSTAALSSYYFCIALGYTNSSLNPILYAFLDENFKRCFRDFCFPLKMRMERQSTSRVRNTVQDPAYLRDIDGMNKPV
Series [2] deals with T1, cloned human kappa receptor. Put plainly: biochemical. It counts as binding. The conditions noted are these: for inhibition at 1 µM: read-out: 3H-Diprenorphin, % @ 1 uM.
In series [3] the test system is formalin-induced flinching. Kind of series: animal or person. It counts as in vivo, male Sprague-Dawley rats. The conditions noted are these: rat, in vivo.

Compound `Cl.O=C(Cc1ccc(Cl)c(Cl)c1)N1CCN(Cc2ccccc2)C[C@H]1CN1CCCC1` [(R-1), (R)-4-(Phenylmethyl)-1-[(3,4-dichlorophenyl)acetyl]-2-[(1-pyrrolidinyl)methyl]piperazine hydrochloride] yielded a melting point of 168 to 170 °C. The Ki in series [1] was 9.3 nM. The Ki in series [2] (Ki, nM 3H-Diprenorphin) is 57 nM and 38 nM. The “Late Phase Formalin, % @ 300; i.paw” value in series [3] is listed as 53% @ 300.

`CS(=O)(=O)N1CCN(C(=O)Cc2ccc(Cl)c(Cl)c2)[C@H](CN2CCCC2)C1.Cl` [(R-3a), (R)-4-Methanesulfonyl-1-[(3,4-dichlorophenyl)acetyl]-2-[(1-pyrrolidinyl)methyl]-piperazine hydrochloride] registered a melting point of 130 to 132 °C. The Ki in series [1] was 0.19 nM and 0.5 nM. In addition, the inhibition constant Ki in series [2] (Ki, nM 3H-Diprenorphin) was 0.2 nM and 1.3 nM. The “Late Phase Formalin A50 (mg); i.paw” value in series [3] is 14 (5.6-29) mg.

Regarding `Cl.Cl.O=C(O)CN1CCN(C(=O)Cc2ccc(Cl)c(Cl)c2)[C@H](CN2CCCC2)C1` [(R-3c), (R)-4-[(3,4-dichlorophenyl)acetyl]-3-[(1-pyrrolidinyl)methyl]-1-piperazineacetic acid dihydrochloride], the melting point was 190 °C (dec.). For the same compound, in series [1], the Ki is 23 nM and 21 nM. Besides, the inhibition at 1 µM in series [2] stood at 62%. For the same compound, the “Late Phase Formalin, % @ 300; i.paw” value in series [3] worked out at 26% @ 300.

`CC(=O)N1CCN(C(=O)Cc2ccc(Cl)c(Cl)c2)[C@H](CN2CCCC2)C1.Cl` [(R-3f), (R)-4-Acetyl-1-[(3,4-dichlorophenyl)acetyl]-2-[(1-pyrrolidinyl)methyl]-piperazine hydrochloride] had a melting point of 153 to 155 °C. Further, in series [1], the Ki is 0.11 nM and 0.14 nM. The Ki in series [2] (Ki, nM 3H-Diprenorphin) is 4.2 nM and 1.4 nM. For the same compound, the “Late Phase Formalin, % @ 300; i.paw” value in series [3] was found to be 95% @ 300.

With `CCOP(=O)(OCC)N1CCN(C(=O)Cc2ccc(Cl)c(Cl)c2)[C@H](CN2CCCC2)C1` [(R-3g), (R)-4-(Diethoxyphosphonate)-1-[(3,4-dichlorophenyl)acetyl]-2-[(1-pyrolidinyl)methyl]-piperazine hydrochloride], the Ki is 1.3 nM and 1.4 nM in series [1]; 99 nM and 33 nM in series [2] (Ki, nM 3H-Diprenorphin). The “Late Phase Formalin, % @ 300; i.paw” value in series [3] is reported as 54% @ 300.

Turning to `O=C(Cc1ccc(Cl)c(Cl)c1)N1CCN(C(=O)C(F)(F)F)C[C@H]1CN1CCCC1` [(R-3h), (R)-4-Trifluoroacetyl-1-(3,4-dichlorophenyl)acetyl]-2-[(1-pyrrolidinyl)methyl]-piperazine hydrochloride], the Ki was 0.26 nM and 0.16 nM in series [1]; 6.9 nM and 1.8 nM in series [2] (Ki, nM 3H-Diprenorphin). Further, the “Late Phase Formalin, % @ 300; i.paw” value in series [3] stood at 94% @ 300.

`Cl.NC(=O)N1CCN(C(=O)Cc2ccc(Cl)c(Cl)c2)[C@H](CN2CCCC2)C1` [(R-3i), (R)-4-[(3,4-Dichlorophenyl)acetyl]-3-[(1-pyrrolidinyl)methyl]-1-piperazinecarboxamide hydrochloride]: the Ki in series [1] was 2.9 nM; in series [2] (Ki, nM 3H-Diprenorphin) it was 56 nM and 29 nM. Moreover, in series [3], the “Late Phase Formalin, % @ 300; i.paw” value turned out to be 68% @ 300.

Turning to `Cl.O=CN1CCN(C(=O)Cc2ccc(Cl)c(Cl)c2)[C@H](CN2CCCC2)C1` [(R-3j), (R)-4-[(3,4-Dichlorophenyl)acetyl]-3-[(1-pyrrolidinyl)methyl]-1-piperazinecarboxaldehyde hydrochloride], the melting point was 126 °C (dec.). Moreover, the Ki in series [1] was found to be 0.4 nM. In addition, the inhibition at 1 µM in series [2] turned out to be 96%. For the same compound, the “Late Phase Formalin, % @ 300; i.paw” value in series [3] amounted to 65% @ 300.

As to `Cc1ccc(S(=O)(=O)N2CCN(C(=O)Cc3ccc(Cl)c(Cl)c3)[C@H](CN3CCCC3)C2)cc1` [(R-3l), (R)-4-(4-Methyphenylsulfonyl)-1-[(3,4-dichlorophenyl)acetyl]-2-[(1-Pyrrolidinyl)methyl]-piperazine hydrochloride], the Ki in series [1] was found to be 6.2 nM; in series [2] (Table I, read-out: Ki, nM 3H-Diprenorphin) it was 120 nM. For the same compound, the “Late Phase Formalin, % @ 300; i.paw” value in series [3] is 24% @ 300.

Take `O=C(Cc1ccc(C(F)(F)F)cc1)N1CCN(Cc2ccccc2)CC1CN1CCCC1` (centres unmarked) [(R.S-11)]: the Ki is 0.39 nM and 0.57 nM in series [1]; 2.2 nM and 2.4 nM in series [2] (Ki, nM 3H-Diprenorphin). Besides, the “Late Phase Formalin, % @ 300; i.paw” value in series [3] amounted to 92% @ 300.

Take `COC(=O)N1CCN(C(=O)Cc2ccc(Cl)c(Cl)c2)C(CN2CCCC2)C1` (centres unmarked) [GR 89696, reference compound]: the Ki in series [1] was 1.6 nM and 1.5 nM; in series [2] (Ki, nM 3H-Diprenorphin) it was 0.095 nM and 0.1 nM. Moreover, the “Late Phase Formalin A50 (mg); i.paw” value in series [3] was 0.35(0.20-0.62) mg.
